In a melting point compilation (Tetko et al.; mined from patent text by program, amines drawn as free bases though some values may be those of a salt) one finds melting point data, which are given here for 61 molecules.

The structures appear in SMILES notation.

In turn, `COc1nccc(-c2c(-c3ccc(F)cc3)ncn2[C@H]2CC[C@H](O)CC2)n1` gave a melting point of 188 to 190 °C.

`CC1=CC(C=O)(NC(c2ccccc2)(c2ccccc2)c2ccccc2)NC=C1` (stereo unspecified) showed a melting point of 213 °C.

The molecule `CCCOc1cc(C)c(C(=O)O)c(OCc2ccc(OCCc3nc(-c4ccccc4)oc3C)cc2)c1` showed a melting point of 50 to 52 °C.

Molecule `C(=C\c1cc(/C=C/c2ccc3cc[nH]c3c2)[nH]n1)/c1ccc(N2CCOCC2)cc1` showed a melting point of 236 to 238 °C.

Consider `O=C(COc1cc(-c2ccc([N+](=O)[O-])cc2)nc2cccc(C(F)(F)F)c12)N1CCOCC1`, for which the melting point is 222 °C.

In turn, `CC(C)C[C@H](O)[C@H](O)[C@H](CC1CCCCC1)NC(=O)OC(C)(C)C` showed a melting point of 128 to 130 °C.

As to `CCS(=O)(=O)c1ccc(-c2coc3ccc(-c4nnc(C)o4)cc23)cc1`, the melting point was 180 to 181 °C.

`CCOC(OCC)N1C(=O)C(c2ncnc3cc(OCCOC)c(OC)cc23)c2ccccc21` (stereo unspecified) displayed a melting point of 148 to 150 °C.

`O=C(Cc1ccccc1)c1ccc(OCC(F)(F)F)cc1` returned a melting point of 108 °C.

Regarding `Cc1cc(O)c(C23CC4CC(CC(C4)C2)C3)cc1-c1cccc(C=C2SC(N3CCOCC3)=NC2=O)c1`, the melting point was 327 to 329 °C.

`CCOC(=O)c1cn(Cc2ccccc2OC)c2sc(-c3ccc(OC)cc3)c(C)c2c1=O` displayed a melting point of 165 to 167 °C.

Regarding `CCCCCCCCCCCC(O)CC(=O)C(CCCCCC)C(=O)OC` (stereo unspecified), the melting point was in the range of 38 to 39 °C.

On to `COc1ccc(-c2ccc(C(CCC(=O)O)=NO)cc2)cc1`, for which the melting point lay in the range of 157 to 160 °C.

`CCc1cccc(CC)c1C(=O)Nc1nnc(C(C)(CC)CC)s1` came in with a melting point of 186 to 188 °C.

In the case of `COc1ccc([N+](=O)[O-])cc1CN1CCNCCNCCNCC1`, the melting point lay within 154 to 156 °C.

In turn, `CC(=O)SCC(Cc1ccccc1)C(=O)NN1CCSCC1` (stereo unspecified) showed a melting point of 138 °C.

The molecule `O=C1N(Cc2ccc(N3CCOCC3)cn2)c2ccccc2C12COc1cc3c(cc12)OCCO3` (stereo unspecified) had a melting point of 204 to 206 °C.

Molecule `COc1ccc(CCOc2cccc(-c3cccc(C(=O)O)c3)n2)cc1OC` registered a melting point of 147 to 148 °C.

Take `CCOC(=O)C(C)(C)NC(=O)c1ccc(S(=O)(=O)N2C(=O)C(NC)(c3ccccc3Cl)c3cc(Cl)ccc32)c(OC)c1` (stereo unspecified): the melting point worked out at 141 °C.

`CCn1c(=O)c(-c2c(Cl)cccc2Cl)cc2cnc(Nc3cc(OC)c(OC)c(OC)c3)nc21` returned a melting point of 275 to 278 °C.

The molecule `O=C(O)c1ccc(S(=O)(=O)Cc2c(O[C@H](Cn3ccnc3)c3ccccc3)ccc3c2CCCC3=O)cc1` gave a melting point of 250 °C.

For the molecule `COc1ccc(OC2COc3ccc(O)cc3C2O)cc1` (stereo unspecified), the melting point was in the range of 187 to 189 °C.

On to `Cc1ccc(S(=O)(=O)OCC2Cc3cccc(-c4ccc(F)c(Cl)c4)c3O2)cc1` (stereo unspecified), for which the melting point was in the range of 104 to 108 °C.

Consider `CCC1Nc2cc(C)cc(C)c2N1c1ccc(CCNC(=O)NS(=O)(=O)c2ccc(C)cc2)cc1` (stereo unspecified), for which the melting point lay within 108 to 112 °C.

For the molecule `C=CCc1cc(C(C)=O)c(O)cc1OCCCCCC(=O)OC`, the melting point fell in the range of 64 to 65 °C.

On to `COCOc1cc(F)ccc1-c1cc(-c2cccc(C(=O)OC)c2)c(C#N)c(N)n1`, for which the melting point lay within 155 to 158 °C.

The molecule `COc1ccc(Nc2c(C#N)cnc3cc(OC)c(OC)cc23)cc1O` had a melting point of 254 to 256 °C.

`Fc1c(F)c(Br)c2nsnc2c1Br` displayed a melting point of 148 to 149 °C.

`Cc1ncnn1-c1ccc(N)cc1` yielded a melting point of 145 °C.

In the case of `CCOC(=O)c1c(C)nc2ccn(-c3ccc(Cl)cc3)n2c1=O`, the melting point lay within 175 to 177 °C.

The molecule `CC1(C)CCC(C)(C)c2cc(COc3cccc(C(=O)O)c3-c3ccc(CCO)cc3)ccc21` yielded a melting point of 201 to 203 °C.

For the molecule `O=C(O)CCCc1cc2nc(C(F)(F)F)ccc2n1S(=O)(=O)c1ccccc1`, the melting point amounted to 168 °C.

As to `NCCCCc1cnc(-c2ccccc2)s1`, the melting point was in the range of 62 to 64 °C.

In turn, `CCn1c(=O)c2cccnc2n(-c2cccc([N+](=O)[O-])c2)c1=O` returned a melting point of 210 to 211 °C.

As for `O=C(NCCCn1cncn1)c1ccco1`, the melting point lay within 63 to 66 °C.

Consider `O=C(Nc1cccc(O)c1)C(CS)C(F)(F)F` (stereo unspecified), for which the melting point lay within 147 to 151 °C.

Regarding `Clc1ccc(C(c2ccccc2)c2cn[nH]c2)c(Cl)c1` (stereo unspecified), the melting point worked out at 131 °C.

The molecule `Cc1nc(-c2ccc(-c3cnc4[nH]c(=O)n(CC5CCCCC5)c4n3)cc2)n[nH]1` yielded a melting point of 315 to 318 °C.

In turn, `O=C1c2ccccc2C(=O)c2sc(-c3ccc(Br)o3)nc21` returned a melting point of more than 260 °C.

As to `CC1=Nc2ccccc2C=C(c2ccccc2)N1C`, the melting point is 144 to 145 °C.

The molecule `CCOC(=O)Cn1nnnc1S(=O)(=O)c1ccc(C)cc1` yielded a melting point of 98 to 100 °C.

`CNCCCCCCCCCCCO`: the melting point is 58 °C.

Regarding `O=S(=O)(Oc1ccc2c(OS(=O)(=O)c3ccc(O)cc3)c3cc(OS(=O)(=O)c4ccc(O)cc4)ccc3cc2c1)c1ccc(O)cc1`, the melting point is 192 to 194 °C.

`CC(O)=C(C#N)C(=O)Nc1ccccc1` had a melting point of 134 to 135 °C.

The molecule `O=[N+]([O-])c1ccc(F)c(-c2cccc(CO)c2)c1` gave a melting point of 113 to 114 °C.

As for `CCn1nc(-c2c(-c3ccccc3)nn3ccc(OC)cc23)ccc1=O`, the melting point was in the range of 148 to 149 °C.

As for `C[C@@H]1Cc2ccsc2[C@H](C)N1CCCCNC(=O)c1ccc(NS(C)(=O)=O)cc1` (relative stereo), the melting point is 112 to 116 °C.

With `Cc1cnc(C#Cc2ccccc2)s1`, the melting point was 82 to 83 °C.

Molecule `Cc1c[nH]c(Cc2ccccc2NC(=O)N2CCN(C)CC2)n1` gave a melting point of 177 to 179 °C.

With `CCCCc1nc2ccsc2n1Cc1ccc(-c2ccccc2C(=O)O)cc1`, the melting point came out at 203 °C.

`Nc1ncc(C(F)(F)F)cc1[N+](=O)[O-]`: the melting point lay within 110 to 112 °C.

Take `CCOC(=O)C1CCC2(CCN(S(=O)(=O)c3ccc(C)cc3)c3ccccc3C2)C1=O` (stereo unspecified): the melting point fell in the range of 114 to 116 °C.

As to `CC(C)NC(=O)c1nn(-c2ccc(Cl)cc2)c(=O)c2c(N)scc12`, the melting point is 197 to 199 °C.

The molecule `N#Cc1c(C(F)(F)F)[nH]c2ccc(Br)cc12` yielded a melting point of 188 to 192 °C.

Regarding `Cc1cccc(N2CCN(c3cc[nH]c(=S)c3C#N)CC2C)c1` (stereo unspecified), the melting point lay within 250 to 251 °C.

As for `CC(C(=O)OC(C)(C)C)C(C)(O)c1ccc(Cl)nc1NC(=O)C(C)(C)C` (stereo unspecified), the melting point is 146 to 148 °C.

Molecule `NC(=O)c1c(C(=O)O)cnn1-c1cccc(F)c1` displayed a melting point of 215 to 216 °C.

In the case of `COC(=O)CCCCc1cc2cc(C(F)(F)F)ccc2n1S(=O)(=O)c1cccc(C(C)(C)C)c1`, the melting point stood at 77 °C.

Take `O=C(Nc1cnccn1)c1cn(-c2ccccc2)c2ccccc2c1=O`: the melting point fell in the range of 298 to 300 °C.

The molecule `CC(C)(C)OC(=O)N1CCN(c2ccc(-c3[nH]nc4c3C(=O)c3c(NC(=O)NN5CCOCC5)cccc3-4)cc2)CC1` registered a melting point of 242 °C.

The molecule `COC(=O)C(=CC(=CN(C)C)c1ccc(Cl)cc1[N+](=O)[O-])[N+](=O)[O-]` displayed a melting point of 193 to 197 °C.
